The values that follow come from PMC11870037 (Molecules, 2024).

Structures are written as SMILES. Read-outs that look alike come from different tables or passages of the source.

One data set deals with T1, SERT (Rattus norvegicus, UniProt P31652).
T1 construct: [3H]-paroxetine, rat cerebral cortex; from tissue; host or cells: rat cerebral cortex (membranes / crude synaptosomes)
The data set is described as follows: biochemical. The class given is binding. Particulars: for potency ratio among SERT, NET, and H3: ratio of binding Ki values for SERT.

Data set [1] has as its target T2, NET (Rattus norvegicus, UniProt Q63380). The data set is described as follows: biochemical. Particulars: Receptor Affinity Ki ± SEM NET, rat hippocampal membrane, [3H]nisoxetine; means ± SEM of three experiments.
A further data set concerns the target adrenergic α1 receptor. As to the kind of experiment: Adrenergic α1 receptor binding assay ([3H]prazosin). As to conditions: rat cerebral cortex, means ± SEM of three experiments, read-out: Receptor Affinity Ki ± SEM α1.
The target in another data set is T3, hERG potassium channel (Homo sapiens, UniProt Q12809).
T3 construct: expressed in transfected cells; host or cells: HEK 293
T3 sequence (Q12809 whole entry): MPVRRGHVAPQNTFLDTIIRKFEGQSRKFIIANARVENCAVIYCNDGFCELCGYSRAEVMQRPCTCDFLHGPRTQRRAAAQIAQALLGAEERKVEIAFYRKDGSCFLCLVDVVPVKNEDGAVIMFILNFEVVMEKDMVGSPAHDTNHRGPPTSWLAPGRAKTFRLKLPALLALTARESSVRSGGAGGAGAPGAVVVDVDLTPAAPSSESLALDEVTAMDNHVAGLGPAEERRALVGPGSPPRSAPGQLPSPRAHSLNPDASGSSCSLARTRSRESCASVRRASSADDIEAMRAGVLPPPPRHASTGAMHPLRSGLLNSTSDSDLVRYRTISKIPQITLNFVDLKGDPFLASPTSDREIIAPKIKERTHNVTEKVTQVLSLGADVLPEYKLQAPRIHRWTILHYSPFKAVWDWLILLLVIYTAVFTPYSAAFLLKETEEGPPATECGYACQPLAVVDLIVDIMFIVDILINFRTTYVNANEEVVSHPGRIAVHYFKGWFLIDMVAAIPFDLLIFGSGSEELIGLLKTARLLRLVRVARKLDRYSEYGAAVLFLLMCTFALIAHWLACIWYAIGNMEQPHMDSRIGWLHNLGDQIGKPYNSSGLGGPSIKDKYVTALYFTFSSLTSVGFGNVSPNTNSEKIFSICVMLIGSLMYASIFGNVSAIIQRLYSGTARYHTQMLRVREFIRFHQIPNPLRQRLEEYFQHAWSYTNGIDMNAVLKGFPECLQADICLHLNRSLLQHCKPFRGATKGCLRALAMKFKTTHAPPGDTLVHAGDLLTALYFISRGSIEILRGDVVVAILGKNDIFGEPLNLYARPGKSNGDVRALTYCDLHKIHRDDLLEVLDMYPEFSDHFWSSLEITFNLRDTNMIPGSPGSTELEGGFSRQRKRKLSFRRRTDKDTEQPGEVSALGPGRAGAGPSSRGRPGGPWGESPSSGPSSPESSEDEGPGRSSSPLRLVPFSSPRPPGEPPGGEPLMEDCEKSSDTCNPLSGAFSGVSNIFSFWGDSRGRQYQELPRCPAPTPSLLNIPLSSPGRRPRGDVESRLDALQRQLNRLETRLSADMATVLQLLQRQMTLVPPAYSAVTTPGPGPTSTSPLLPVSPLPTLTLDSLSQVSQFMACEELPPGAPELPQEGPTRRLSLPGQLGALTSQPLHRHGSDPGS
The data set is described as follows: hERG whole-cell patch clamp in HEK 293 cells. The class given is cell-based.

In another data set the target is recombinant hH3R (Homo sapiens, UniProt Q9Y5N1). As to the kind of experiment: H3 receptor intrinsic activity assay ([35S]GTPγS binding). The class given is biochemical. As to conditions: 10 μM, n = 3. In general terms: GTPγS is a poorly hydrolysed GTP analogue; its binding reports G protein activation.
recombinant hH3R, sequence (Q9Y5N1 whole entry): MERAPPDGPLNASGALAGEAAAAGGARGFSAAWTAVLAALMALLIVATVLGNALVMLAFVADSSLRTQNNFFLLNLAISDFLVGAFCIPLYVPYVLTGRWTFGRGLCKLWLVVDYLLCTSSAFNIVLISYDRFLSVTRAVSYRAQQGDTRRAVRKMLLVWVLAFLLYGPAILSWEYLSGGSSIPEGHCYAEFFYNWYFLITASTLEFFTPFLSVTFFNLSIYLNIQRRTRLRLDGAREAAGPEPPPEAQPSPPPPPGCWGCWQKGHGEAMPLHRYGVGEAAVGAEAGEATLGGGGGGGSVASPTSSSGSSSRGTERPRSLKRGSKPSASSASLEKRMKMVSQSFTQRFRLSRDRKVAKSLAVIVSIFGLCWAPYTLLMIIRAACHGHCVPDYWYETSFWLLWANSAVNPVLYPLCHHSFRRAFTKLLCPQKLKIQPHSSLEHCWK
Data set [2] concerns the target T2, NET. As to the kind of experiment: Monoamine uptake transporter assay, [3H]NE uptake by NET. Format: biochemical. Particulars: 10 μM, n = 3.
Where [3] appears, read: rat cerebral cortex, [3H]-paroxetine, means ± SEM of three experiments, read-out: Receptor Affinity Ki ± SEM SERT.

T1 sequence (P31652 whole entry): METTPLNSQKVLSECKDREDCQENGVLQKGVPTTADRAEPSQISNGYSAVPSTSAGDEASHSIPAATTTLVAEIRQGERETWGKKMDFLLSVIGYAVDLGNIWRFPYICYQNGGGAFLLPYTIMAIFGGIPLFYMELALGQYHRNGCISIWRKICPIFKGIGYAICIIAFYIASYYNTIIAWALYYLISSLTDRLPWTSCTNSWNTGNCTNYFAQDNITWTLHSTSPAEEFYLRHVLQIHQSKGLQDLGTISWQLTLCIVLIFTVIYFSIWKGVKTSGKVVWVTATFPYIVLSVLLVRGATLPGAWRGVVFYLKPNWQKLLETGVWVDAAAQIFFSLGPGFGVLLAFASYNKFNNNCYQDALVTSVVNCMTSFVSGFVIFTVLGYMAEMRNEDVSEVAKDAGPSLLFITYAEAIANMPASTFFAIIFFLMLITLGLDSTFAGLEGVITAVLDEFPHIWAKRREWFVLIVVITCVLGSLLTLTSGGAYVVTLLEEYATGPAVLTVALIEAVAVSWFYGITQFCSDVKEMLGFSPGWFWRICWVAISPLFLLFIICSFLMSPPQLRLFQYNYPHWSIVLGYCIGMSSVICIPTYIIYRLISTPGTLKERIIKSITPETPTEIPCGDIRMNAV
T2 sequence (Q63380 1-617): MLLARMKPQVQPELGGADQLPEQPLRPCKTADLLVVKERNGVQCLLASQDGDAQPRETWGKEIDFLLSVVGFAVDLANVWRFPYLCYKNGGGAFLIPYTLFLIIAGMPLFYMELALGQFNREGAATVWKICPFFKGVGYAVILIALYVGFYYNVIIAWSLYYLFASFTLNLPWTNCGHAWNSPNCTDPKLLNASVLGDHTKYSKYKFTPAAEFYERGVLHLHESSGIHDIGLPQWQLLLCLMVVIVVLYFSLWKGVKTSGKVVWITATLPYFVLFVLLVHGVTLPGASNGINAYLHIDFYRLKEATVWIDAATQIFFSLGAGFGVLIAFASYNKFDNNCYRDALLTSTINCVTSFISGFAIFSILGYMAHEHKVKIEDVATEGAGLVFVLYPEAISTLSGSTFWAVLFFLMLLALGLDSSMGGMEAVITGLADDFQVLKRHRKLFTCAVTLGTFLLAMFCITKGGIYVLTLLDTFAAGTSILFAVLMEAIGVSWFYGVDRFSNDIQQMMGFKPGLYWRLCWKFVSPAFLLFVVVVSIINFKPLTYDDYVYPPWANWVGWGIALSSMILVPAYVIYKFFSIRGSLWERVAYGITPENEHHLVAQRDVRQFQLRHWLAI

`CC1CCCCN1CCCOc1ccc(C(CCN(C)C)Oc2cccc3c2OCO3)cc1.O=C(O)C(=O)O` (stereo not shown) [Compound 11p, 3-(benzo[d][1,3]dioxol-4-yloxy)-N,N-dimethyl-3-(4-(3-(2-methylpiperidin-1-yl)propoxy)phenyl)propan-1-amine oxalate] yielded a melting point of 129 to 131 °C. Further, the Ki on SERT (setting [3]) worked out at 0.0206 ± 0.0019 µM. The affinity on NET [1], expressed as Ki, was 0.0354 ± 0.0032 µM.
Consider `CC(C)N1CCN(CCCOc2ccc(C(CCN(C)C)Oc3cccc4c3OCO4)cc2)CC1.O=C(O)C(=O)O` (stereo not shown) [Compound 11f, 3-(benzo[d][1,3]dioxol-4-yloxy)-3-(4-(3-(4-isopropylpiperazin-1-yl)propoxy)phenyl)-N,N-dimethylpropan-1-amine oxalate], for which the melting point was 160 to 162 °C. The Ki at SERT (setting [3]) was determined as 0.0357 ± 0.0031 µM. At NET [1], this compound yielded a Ki of 0.0579 ± 0.0064 µM.
On to `CC1CCN(CCCOc2ccc(C(CCN(C)C)Oc3cccc4c3OCO4)cc2)CC1.O=C(O)C(=O)O` (stereo not shown) [Compound 11r, 3-(benzo[d][1,3]dioxol-4-yloxy)-N,N-dimethyl-3-(4-(3-(4-methylpiperidin-1-yl)propoxy)phenyl)propan-1-amine oxalate], for which the melting point lay in the range of 126 to 128 °C. In addition, at SERT (setting [3]), the Ki was 0.0271 ± 0.0016 µM. The affinity at NET [1], expressed as Ki, was 0.0383 ± 0.0035 µM.
In the case of `CN(C)CCC(Oc1cccc2c1OCO2)c1ccc(OCCCCN2CCCCC2)cc1.O=C(O)C(=O)O` (stereo not shown) [Compound 11o, 3-(benzo[d][1,3]dioxol-4-yloxy)-N,N-dimethyl-3-(4-(4-(piperidin-1-yl)butoxy)phenyl)propan-1-amine oxalate], the melting point lay within 169 to 171 °C. The Ki on SERT (setting [3]) is 0.0492 ± 0.0048 µM. In addition, the affinity on NET [1], expressed as Ki, was 0.0646 ± 0.0055 µM.
Take `CC1CCCN(CCCOc2ccc(C(CCN(C)C)Oc3cccc4c3OCO4)cc2)C1.O=C(O)C(=O)O` (stereo not shown) [Compound 11q, 3-(benzo[d][1,3]dioxol-4-yloxy)-N,N-dimethyl-3-(4-(3-(3-methylpiperidin-1-yl)propoxy)phenyl)propan-1-amine oxalate]: the melting point is 130 to 132 °C. For the same compound, on SERT (setting [3]), the Ki is 0.0121 ± 0.0016 µM. Moreover, the “potency ratio among SERT, NET, and H3” value on SERT was less than 10 fold. Moreover, the inhibition constant Ki at adrenergic α1 receptor was found to be 0.307 ± 0.0281 µM. For the same compound, the Ki at NET [1] turned out to be 0.0207 ± 0.0021 µM. This compound gave an IC50 at hERG potassium channel of 0.78 ± 0.0685 µM.
As to `Clc1ccc(CCCOCCCN2CCCCC2)cc1` [Pitolisant, reference compound], the Ki on SERT (Receptor Affinity Ki ± SEM SERT) and on NET [1] was greater than 1 µM in each case. In addition, the inhibition at 10 µM on recombinant hH3R was 99.3 ± 2.5%.
For `CN(C)CCC(Oc1cccc2c1OCO2)c1cccc(OCCCN2CCCC2)c1.O=C(O)C(=O)O` (stereo not shown) [Compound 11h, 3-(benzo[d][1,3]dioxol-4-yloxy)-N,N-dimethyl-3-(3-(3-(pyrrolidin-1-yl)propoxy)phenyl)propan-1-amine oxalate], the melting point was 104 to 106 °C. Further, the Ki on SERT (setting [3]) came out at 0.192 ± 0.0188 µM. The compound also came in with a Ki at NET [1] of 0.144 ± 0.0135 µM.
The matching figures for `CCN(CC)CCCOc1ccc(C(CCN(C)C)Oc2cccc3c2OCO3)cc1.O=C(O)C(=O)O` (stereo not shown) [Compound 11m, 3-(benzo[d][1,3]dioxol-4-yloxy)-3-(4-(3-(diethylamino)propoxy)phenyl)-N,N-dimethylpropan-1-amine oxalate]: 98 to 100 °C, 0.0284 ± 0.0113 µM and 0.0852 ± 0.0091 µM.
Consider `CNCCC(Oc1ccccc1OC)c1ccccc1` (stereo not shown) [Nisoxetine, reference compound], for which the inhibition at 10 µM against NET [2] came to 99.8 ± 1.9%.
In the case of `CCN1CCN(CCCOc2ccc(C(CCN(C)C)Oc3cccc4c3OCO4)cc2)CC1.O=C(O)C(=O)O` (stereo not shown) [Compound 11e, 3-(benzo[d][1,3]dioxol-4-yloxy)-3-(4-(3-(4-ethylpiperazin-1-yl)propoxy)phenyl)-N,N-dimethylpropan-1-amine oxalate], the melting point lay within 187 to 189 °C. The Ki at SERT (setting [3]) was 0.0396 ± 0.0033 µM. At NET [1], the Ki was 0.0669 ± 0.0051 µM.
The like results for `CC(C)N1CCN(CCCOc2cccc(C(CCN(C)C)Oc3cccc4c3OCO4)c2)CC1.O=C(O)C(=O)O` (stereo not shown) [Compound 11k, 3-(benzo[d][1,3]dioxol-4-yloxy)-3-(3-(3-(4-isopropylpiperazin-1-yl)propoxy)phenyl)-N,N-dimethylpropan-1-amine oxalate] were, in that order, 185 to 186 °C, 0.163 ± 0.0176 µM and 0.111 ± 0.0103 µM.
The like results for `CN(C)CCC(Oc1cccc2c1OCO2)c1ccc(OCCCN2CCC(C#N)CC2)cc1.O=C(O)C(=O)O` (stereo not shown) [Compound 11v, 1-(3-(4-(1-(benzo[d][1,3]dioxol-4-yloxy)-3-(dimethylamino)propyl)phenoxy)propyl)piperidine-4-carbonitrile oxalate] were, in that order, 148 to 151 °C, 0.0605 ± 0.0057 µM and 0.0486 ± 0.0064 µM.
Take `CN(C)CCC(Oc1cccc2c1OCO2)c1ccc(OCCN2CCCCC2)cc1.O=C(O)C(=O)O` (stereo not shown) [Compound 11n, 3-(benzo[d][1,3]dioxol-4-yloxy)-N,N-dimethyl-3-(4-(2-(piperidin-1-yl)ethoxy)phenyl)propan-1-amine oxalate]: the melting point was in the range of 116 to 118 °C. Further, the Ki at SERT (setting [3]) worked out at 0.0261 ± 0.0023 µM. This compound also had a Ki at NET [1] of 0.0373 ± 0.0042 µM.
`CN(C)CCC(Oc1cccc2c1OCO2)c1ccc(OCCCN2CCC(F)CC2)cc1.O=C(O)C(=O)O` (stereo not shown) [Compound 11t, 3-(benzo[d][1,3]dioxol-4-yloxy)-3-(4-(3-(4-fluoropiperidin-1-yl)propoxy)phenyl)-N,N-dimethylpropan-1-amine oxalate]: the melting point was in the range of 134 to 136 °C. Besides, the Ki on SERT (setting [3]) was 0.0342 ± 0.0028 µM. In addition, the affinity on NET [1], expressed as Ki, was 0.0425 ± 0.0046 µM.
The like results for `CC1CC(C)CN(CCCOc2ccc(C(CCN(C)C)Oc3cccc4c3OCO4)cc2)C1.O=C(O)C(=O)O` (stereo not shown) [Compound 11s, 3-(benzo[d][1,3]dioxol-4-yloxy)-3-(4-(3-(3,5-dimethylpiperidin-1-yl)propoxy)phenyl)-N,N-dimethylpropan-1-amine oxalate] were, in that order, 140 to 142 °C, 0.0303 ± 0.0026 µM and 0.0251 ± 0.0028 µM.
The like results for `CN(C)CCC(Oc1cccc2c1OCO2)c1cccc(OCCCN2CCOCC2)c1.O=C(O)C(=O)O` (stereo not shown) [Compound 11j, 3-(benzo[d][1,3]dioxol-4-yloxy)-N,N-dimethyl-3-(3-(3-morpholinopropoxy)phenyl)propan-1-amine oxalate] were, in that order, 95 to 98 °C, 0.465 ± 0.0398 µM and 0.153 ± 0.0127 µM.
The matching figures for `CN(C)CCC(Oc1cccc2c1OCO2)c1ccc(OCCCN2CCOCC2)cc1.O=C(O)C(=O)O` (stereo not shown) [Compound 11c, 3-(benzo[d][1,3]dioxol-4-yloxy)-N,N-dimethyl-3-(4-(3-morpholinopropoxy)phenyl)propan-1-amine oxalate]: 169 to 170 °C, 0.0432 ± 0.0038 µM and 0.0326 ± 0.0027 µM.
Take `CN(C)CCC(Oc1cccc2c1OCO2)c1ccc(OCCCN2CC3CCCC3C2)cc1.O=C(O)C(=O)O` (stereo not shown) [Compound 11g, 3-(benzo[d][1,3]dioxol-4-yloxy)-3-(4-(3-(hexahydrocyclopenta[c]pyrrol-2(1H)-yl)propoxy)phenyl)-N,N-dimethylpropan-1-amine oxalate]: the melting point was 110 to 112 °C. In addition, the Ki at SERT (setting [3]) worked out at 0.0313 ± 0.004 µM. This compound registered a Ki at NET [1] of 0.0482 ± 0.0042 µM.
The matching figures for `CN(C)CCC(Oc1cccc2c1OCO2)c1ccc(OCCCN2CCC(Cl)CC2)cc1.O=C(O)C(=O)O` (stereo not shown) [Compound 11u, 3-(benzo[d][1,3]dioxol-4-yloxy)-3-(4-(3-(4-chloropiperidin-1-yl)propoxy)phenyl)-N,N-dimethylpropan-1-amine oxalate]: 145 to 146 °C, 0.0395 ± 0.004 µM and 0.0502 ± 0.0049 µM.
Consider `CN(C)CCC(Oc1cccc2c1OCO2)c1ccc(OCCCN2CCN(C)CC2)cc1.O=C(O)C(=O)O` (stereo not shown) [Compound 11d, 3-(benzo[d][1,3]dioxol-4-yloxy)-N,N-dimethyl-3-(4-(3-(4-methylpiperazin-1-yl)propoxy)phenyl)propan-1-amine oxalate], for which the melting point fell in the range of 155 to 156 °C. The Ki at SERT (setting [3]) was found to be 0.0523 ± 0.0028 µM. Besides, the affinity on NET [1], expressed as Ki, was 0.0868 ± 0.0091 µM.
`CN(C)CCC(Oc1cccc2c1OCO2)c1cccc(OCCCN2CCCCC2)c1.O=C(O)C(=O)O` (stereo not shown) [Compound 11i, 3-(benzo[d][1,3]dioxol-4-yloxy)-N,N-dimethyl-3-(3-(3-(piperidin-1-yl)propoxy)phenyl)propan-1-amine oxalate] registered a melting point of 81 to 83 °C. Besides, at SERT (setting [3]), the Ki stood at 0.236 ± 0.0261 µM. Besides, at NET [1], the affinity, expressed as Ki, was 0.105 ± 0.0098 µM.
With `CN(C)CCC(Oc1cccc2c1OCO2)c1ccc(OCCCN2CCCC2)cc1.O=C(O)C(=O)O` (stereo not shown) [Compound 11a, 3-(benzo[d][1,3]dioxol-4-yloxy)-N,N-dimethyl-3-(4-(3-(pyrrolidin-1-yl)propoxy)phenyl)propan-1-amine oxalate], the melting point lay within 138 to 140 °C. The Ki at SERT (setting [3]) came to 0.0103 ± 0.0009 µM. Besides, the “potency ratio among SERT, NET, and H3” value at SERT is less than 10 fold. Moreover, at adrenergic α1 receptor, the Ki is 0.428 ± 0.0353 µM. Also, the Ki on NET [1] was 0.0192 ± 0.0023 µM. Also, it took 0.819 ± 0.0904 µM to reach half-maximal inhibition against hERG potassium channel (IC50).
As to `CN(C)CCCOc1ccc(C(CCN(C)C)Oc2cccc3c2OCO3)cc1.O=C(O)C(=O)O` (stereo not shown) [Compound 11l, 3-(benzo[d][1,3]dioxol-4-yloxy)-3-(4-(3-(dimethylamino)propoxy)phenyl)-N,N-dimethylpropan-1-amine oxalate], the melting point was 121 to 122 °C. In addition, the Ki at SERT (setting [3]) came to 0.0171 ± 0.0016 µM. Also, the Ki at NET [1] was 0.115 ± 0.0123 µM.

Usually Ki stands for the equilibrium dissociation constant of an inhibitor or competing ligand from its target. One may read the melting point as the temperature, or range, at which the solid turns liquid. The term IC50 denotes the concentration that gives 50% inhibition. A higher IC50 goes with lower potency. The term inhibition denotes the drop in the measured response relative to a control, in per cent.
